Experimental data: ChEMBL document CHEMBL5584224, “Recent advances in c-Met-based dual inhibitors in the treatment of cancers” (Eur J Med Chem, 2024)
One block for each molecule: values may come before it.

Columns and labels:
NCI-H3122 = assay: Antiproliferative activity against human NCI-H3122 cells assessed as reduction in cell viability incubated for 48 hrs by MTT assay; format: functional, cell-based; conditions: NCI-H3122, 48 h
[1] = Inhibition of TrxR (unknown origin); design: species or system Homo sapiens
[2] = target: Hepatocyte growth factor receptor (Homo sapiens, UniProt P08581)
Description: Inhibition of c-MET (unknown origin)

HCCLM3 = assay: Cytotoxicity against human HCCLM3 cells assessed as cell growth inhibition incubated for 48 hrs by MTT assay; format: functional, cell-based; conditions: HCCLM3, 48 h
HCC827 = assay: Antiproliferative activity against human HCC827 cells; format: functional, cell-based
[3] = target: ALK tyrosine kinase receptor (Homo sapiens, UniProt Q9UM73); assay: Inhibition of ALK (unknown origin)
A-431 = assay: Antiproliferative activity against human A-431 cells assessed as reduction in cell viability incubated for 24 hrs by MTT assay; format: functional, cell-based; conditions: A-431, 24 h
NCI-H1975 = assay: Antiproliferative activity against human NCI-H1975 cells assessed as reduction in cell viability incubated for 48 hrs by MTT assay; format: functional, cell-based; conditions: NCI-H1975, 48 h
A549 [4] = assay: Antiproliferative activity against human A549 cells assessed as reduction in cell viability incubated for 72 hrs by MTT assay; format: functional, cell-based; conditions: A549, 72 h
PC-9 = assay: Antiproliferative activity against human PC-9 cells assessed as reduction in cell growth incubated for 72 hrs by MTT assay; format: functional, cell-based; conditions: PC-9, 72 h
[5] = target: Prostaglandin G/H synthase 2 (Homo sapiens, UniProt P35354); assay: Inhibition of COX-2 (unknown origin)
MCF7 = assay: Antiproliferative activity against human MCF7 cells assessed as reduction in cell viability incubated for 24 hrs by MTT assay; format: functional, cell-based; conditions: MCF7, 24 h
HT-29 = assay: Antiproliferative activity against human HT-29 cells assessed as reduction in cell viability incubated for 24 hrs by MTT assay; format: functional, cell-based; conditions: HT-29, 24 h
MDA-MB-231 = assay: Antiproliferative activity against human MDA-MB-231 cells assessed as reduction in cell viability incubated for 24 hrs by MTT assay; format: functional, cell-based; conditions: MDA-MB-231, 24 h
A549 [6] = assay: Antiproliferative activity against human A549 cells assessed as reduction in cell viability incubated for 24 hrs by MTT assay; format: functional, cell-based; conditions: A549, 24 h
COLO 205 = assay: Antiproliferative activity against human COLO 205 cells assessed as reduction in cell viability incubated for 24 hrs by MTT assay; format: functional, cell-based; conditions: COLO 205, 24 h
MHCC97H = assay: Antiproliferative activity against human MHCC97H cells assessed as cell growth inhibition incubated for 48 hrs by MTT assay; format: functional, cell-based
MKN-45 = assay: Antiproliferative activity against human MKN-45 cells assessed as cell growth inhibition incubated for 48 hrs by MTT assay; format: functional, cell-based; conditions: MKN-45, 48 h
[7] = target: T1, Tyrosine-protein kinase receptor UFO (Homo sapiens, UniProt P30530); assay: Inhibition of AXL (unknown origin)
T1 sequence (P30530 whole entry): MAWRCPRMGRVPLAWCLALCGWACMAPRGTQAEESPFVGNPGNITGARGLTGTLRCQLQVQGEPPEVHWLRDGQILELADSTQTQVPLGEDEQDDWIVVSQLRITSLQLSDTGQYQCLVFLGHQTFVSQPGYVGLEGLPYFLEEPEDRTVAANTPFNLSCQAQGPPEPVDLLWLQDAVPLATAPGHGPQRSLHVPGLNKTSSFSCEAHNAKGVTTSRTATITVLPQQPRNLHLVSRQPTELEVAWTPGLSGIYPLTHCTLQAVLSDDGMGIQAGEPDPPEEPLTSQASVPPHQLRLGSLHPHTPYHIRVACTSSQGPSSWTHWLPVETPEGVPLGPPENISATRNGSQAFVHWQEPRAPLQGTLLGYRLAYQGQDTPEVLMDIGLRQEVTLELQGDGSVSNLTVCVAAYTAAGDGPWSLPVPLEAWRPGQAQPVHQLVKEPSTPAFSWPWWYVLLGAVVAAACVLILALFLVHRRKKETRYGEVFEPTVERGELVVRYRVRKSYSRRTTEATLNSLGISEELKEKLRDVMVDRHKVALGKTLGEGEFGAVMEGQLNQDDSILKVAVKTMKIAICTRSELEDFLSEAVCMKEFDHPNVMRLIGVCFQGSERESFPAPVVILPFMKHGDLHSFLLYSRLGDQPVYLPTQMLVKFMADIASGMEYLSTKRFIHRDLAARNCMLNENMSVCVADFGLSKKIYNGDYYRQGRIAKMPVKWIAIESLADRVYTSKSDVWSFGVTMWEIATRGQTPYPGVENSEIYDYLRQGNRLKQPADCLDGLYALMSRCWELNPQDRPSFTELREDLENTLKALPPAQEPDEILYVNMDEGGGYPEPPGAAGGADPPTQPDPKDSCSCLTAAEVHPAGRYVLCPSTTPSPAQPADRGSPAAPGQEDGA

ALK tyrosine kinase receptor, sequence (Q9UM73 whole entry): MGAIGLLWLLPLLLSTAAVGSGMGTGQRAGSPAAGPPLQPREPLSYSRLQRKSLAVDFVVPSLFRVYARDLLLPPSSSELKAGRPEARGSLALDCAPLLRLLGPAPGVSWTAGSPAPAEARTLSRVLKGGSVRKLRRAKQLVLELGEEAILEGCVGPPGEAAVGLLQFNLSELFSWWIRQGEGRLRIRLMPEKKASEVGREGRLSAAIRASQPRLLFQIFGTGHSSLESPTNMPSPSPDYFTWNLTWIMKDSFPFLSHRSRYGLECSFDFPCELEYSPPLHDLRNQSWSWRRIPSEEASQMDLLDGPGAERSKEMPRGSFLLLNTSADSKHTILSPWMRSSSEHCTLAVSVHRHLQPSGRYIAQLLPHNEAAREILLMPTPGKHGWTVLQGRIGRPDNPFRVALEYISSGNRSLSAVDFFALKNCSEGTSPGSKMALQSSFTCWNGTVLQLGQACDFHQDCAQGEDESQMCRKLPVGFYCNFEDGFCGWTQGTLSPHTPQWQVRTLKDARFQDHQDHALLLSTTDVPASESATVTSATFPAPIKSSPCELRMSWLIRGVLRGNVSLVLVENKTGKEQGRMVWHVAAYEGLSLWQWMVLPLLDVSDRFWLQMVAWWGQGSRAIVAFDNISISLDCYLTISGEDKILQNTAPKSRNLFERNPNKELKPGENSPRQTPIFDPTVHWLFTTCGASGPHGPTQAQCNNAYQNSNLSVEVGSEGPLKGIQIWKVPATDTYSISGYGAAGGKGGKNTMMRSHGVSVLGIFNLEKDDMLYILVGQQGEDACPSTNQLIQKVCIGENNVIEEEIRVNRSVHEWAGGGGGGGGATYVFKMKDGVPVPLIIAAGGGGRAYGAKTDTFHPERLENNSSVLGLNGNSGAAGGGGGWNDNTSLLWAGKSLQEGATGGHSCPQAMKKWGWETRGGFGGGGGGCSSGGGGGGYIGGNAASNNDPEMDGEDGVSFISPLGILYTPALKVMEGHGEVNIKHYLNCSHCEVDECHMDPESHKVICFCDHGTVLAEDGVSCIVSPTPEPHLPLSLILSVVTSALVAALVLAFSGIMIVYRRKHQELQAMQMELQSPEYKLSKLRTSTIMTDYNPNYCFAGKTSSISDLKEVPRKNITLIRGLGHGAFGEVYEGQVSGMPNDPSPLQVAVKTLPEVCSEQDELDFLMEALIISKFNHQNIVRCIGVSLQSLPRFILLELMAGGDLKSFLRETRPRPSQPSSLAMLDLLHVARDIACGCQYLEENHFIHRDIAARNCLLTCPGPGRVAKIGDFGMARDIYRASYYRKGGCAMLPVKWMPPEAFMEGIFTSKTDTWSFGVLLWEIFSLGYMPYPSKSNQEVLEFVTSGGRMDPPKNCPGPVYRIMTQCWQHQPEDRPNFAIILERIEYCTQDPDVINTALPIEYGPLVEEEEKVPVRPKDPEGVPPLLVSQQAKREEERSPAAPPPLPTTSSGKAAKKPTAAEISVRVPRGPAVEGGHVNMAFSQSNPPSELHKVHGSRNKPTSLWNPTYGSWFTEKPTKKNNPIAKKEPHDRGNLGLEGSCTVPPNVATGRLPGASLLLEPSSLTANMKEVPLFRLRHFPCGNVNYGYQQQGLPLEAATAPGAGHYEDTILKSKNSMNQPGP
Hepatocyte growth factor receptor, sequence (P08581 whole entry): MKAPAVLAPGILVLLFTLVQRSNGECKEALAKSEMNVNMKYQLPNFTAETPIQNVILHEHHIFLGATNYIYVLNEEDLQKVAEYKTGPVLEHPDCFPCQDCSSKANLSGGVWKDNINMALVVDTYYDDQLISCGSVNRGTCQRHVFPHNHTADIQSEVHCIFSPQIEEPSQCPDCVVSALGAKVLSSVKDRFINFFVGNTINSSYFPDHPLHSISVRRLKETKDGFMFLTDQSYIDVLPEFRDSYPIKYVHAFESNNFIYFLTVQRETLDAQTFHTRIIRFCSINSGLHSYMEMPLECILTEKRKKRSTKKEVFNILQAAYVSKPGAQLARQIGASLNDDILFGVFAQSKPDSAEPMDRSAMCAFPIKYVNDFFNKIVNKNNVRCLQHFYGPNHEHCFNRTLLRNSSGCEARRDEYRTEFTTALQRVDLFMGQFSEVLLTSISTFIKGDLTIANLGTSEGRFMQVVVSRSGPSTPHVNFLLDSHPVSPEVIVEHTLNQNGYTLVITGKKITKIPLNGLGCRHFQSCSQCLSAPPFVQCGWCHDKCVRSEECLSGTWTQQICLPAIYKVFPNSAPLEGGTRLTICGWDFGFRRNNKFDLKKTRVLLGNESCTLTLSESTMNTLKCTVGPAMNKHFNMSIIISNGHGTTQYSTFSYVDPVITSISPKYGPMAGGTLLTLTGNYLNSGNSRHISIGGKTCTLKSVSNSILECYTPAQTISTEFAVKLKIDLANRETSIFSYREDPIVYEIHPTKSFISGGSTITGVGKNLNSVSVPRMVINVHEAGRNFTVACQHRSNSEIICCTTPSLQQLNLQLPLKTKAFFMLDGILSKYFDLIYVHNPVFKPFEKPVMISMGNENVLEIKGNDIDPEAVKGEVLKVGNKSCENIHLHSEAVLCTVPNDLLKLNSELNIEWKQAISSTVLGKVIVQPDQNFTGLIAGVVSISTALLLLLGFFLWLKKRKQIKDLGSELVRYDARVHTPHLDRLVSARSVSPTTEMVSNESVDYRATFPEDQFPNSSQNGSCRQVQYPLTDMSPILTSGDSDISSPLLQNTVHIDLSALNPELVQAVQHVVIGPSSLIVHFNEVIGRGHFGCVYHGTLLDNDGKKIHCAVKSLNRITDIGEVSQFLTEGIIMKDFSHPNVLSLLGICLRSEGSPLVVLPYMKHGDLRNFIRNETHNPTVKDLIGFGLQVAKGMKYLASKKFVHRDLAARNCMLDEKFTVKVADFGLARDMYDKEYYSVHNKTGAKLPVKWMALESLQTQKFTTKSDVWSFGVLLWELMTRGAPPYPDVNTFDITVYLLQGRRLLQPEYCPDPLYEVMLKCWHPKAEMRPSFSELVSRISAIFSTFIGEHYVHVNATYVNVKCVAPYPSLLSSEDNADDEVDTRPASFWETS
Prostaglandin G/H synthase 2, sequence (P35354 whole entry): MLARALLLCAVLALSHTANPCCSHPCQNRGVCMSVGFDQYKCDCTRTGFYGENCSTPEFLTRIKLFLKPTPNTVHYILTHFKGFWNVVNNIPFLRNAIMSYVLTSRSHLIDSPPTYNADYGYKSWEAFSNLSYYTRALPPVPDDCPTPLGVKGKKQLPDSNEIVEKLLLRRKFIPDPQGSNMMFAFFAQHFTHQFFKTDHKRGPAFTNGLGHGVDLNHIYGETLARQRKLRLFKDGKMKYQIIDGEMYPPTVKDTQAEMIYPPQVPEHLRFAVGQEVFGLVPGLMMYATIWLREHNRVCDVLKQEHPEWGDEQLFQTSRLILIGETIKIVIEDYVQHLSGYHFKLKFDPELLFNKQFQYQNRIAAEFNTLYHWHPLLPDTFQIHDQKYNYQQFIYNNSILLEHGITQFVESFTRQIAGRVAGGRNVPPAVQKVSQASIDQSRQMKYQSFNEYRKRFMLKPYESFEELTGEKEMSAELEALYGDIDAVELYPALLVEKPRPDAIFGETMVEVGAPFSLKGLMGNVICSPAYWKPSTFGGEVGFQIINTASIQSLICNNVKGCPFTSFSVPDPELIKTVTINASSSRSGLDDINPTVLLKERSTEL

SMILES: O=C(Nc1cccc(-c2nc(-c3ccc(NC(=O)c4cccnc4)cc3Cl)no2)c1)Nc1ccc(NC(=O)C2CC2)c(C(F)(F)F)c1
IC50 [1]: 500 nM

SMILES: Fc1ccc(Cl)c(Sc2n[nH]c3ncc(-c4cnn(C5CCNCC5)c4)cc23)c1Cl
IC50 [2]: 14.6 nM

SMILES: CN(C)CCC[Se]c1cnc(-c2cccc(Cn3nc(-c4cccc(C#N)c4)ccc3=O)c2)nc1
IC50 (HCCLM3): 13 nM

SMILES: c1coc(COCC2Cc3cn4ncnc(-c5cnn(C6CCNCC6)c5)c4c3C2)c1 (stereo not drawn)
IC50 [3]: 0.33 nM
IC50 (A-431): 699 nM
IC50 (NCI-H1975): 1.3 nM

SMILES: Clc1ncccc1COCC1Cc2cn3ncnc(-c4cnn(C5CCNCC5)c4)c3c2C1 (stereo not drawn)
IC50 [3]: 1.88 nM
IC50 (A-431): > 1000 nM
IC50 (NCI-H1975): 39.2 nM

SMILES: CNC(=O)c1ccccc1Nc1nc(Nc2ccc3c(c2)[C@@H](C)CNCC3)ncc1Cl
IC50 [3]: 7.9 nM
IC50 [2]: 6.4 nM

SMILES: O=C(/C=C/c1ccc(F)cc1)c1cccc(NC(=O)c2ccc(Cl)cc2)c1
IC50 [5]: 2430 nM
IC50 (MCF7): 7.07 µM
IC50 (HT-29): 13.6 µM
IC50 (MDA-MB-231): 43 µM
IC50 (A549 [6]): 43.8 µM
IC50 (COLO 205): < 100 nM
IC50 [2]: 7900 nM

SMILES: c1cncc(COCC2Cc3cn4ncnc(-c5cnn(C6CCNCC6)c5)c4c3C2)c1 (stereo not drawn)
IC50 [3]: 1.59 nM
IC50 (A-431): > 1000 nM
IC50 (NCI-H1975): 45.2 nM

SMILES: [2H][C@@](C)(c1cccc(-c2ncc(OCC3CCN(C)CC3)cn2)c1)n1nc(-c2cccc(C#N)c2)ccc1=O
IC50 (MHCC97H): 4.3 nM
IC50 (MKN-45): 1 nM

Further lines, results first:

IC50 (NCI-H3122): 77 nM
SMILES: C[C@@H](Oc1cc(C(=O)Nc2ccc(C(=O)N3CCN(C)CC3)cc2)nnc1N)c1c(Cl)ccc(F)c1Cl

IC50 (HCC827): < 100 nM
SMILES: COCCN1CCC(C#Cc2c(Oc3ccc(NC(=O)c4ccnn(-c5ccc(F)cc5)c4=O)cc3F)ccnc2N)CC1

IC50 (A549 [4]): 1060 nM
IC50 (PC-9): 1050 nM
SMILES: C=CC(=O)Nc1cc2c(Oc3ccc(NC(=O)c4c(C)n(C)n(-c5ccccc5)c4=O)cc3F)ncnc2cc1OC

IC50 (HCC827): < 100 nM
SMILES: CC(C)N1CCC(CC#Cc2c(Oc3ccc(NC(=O)c4cn(C(C)C)c(=O)n(-c5ccc(F)cc5)c4=O)cc3F)ccnc2N)CC1

IC50 [3]: 60 nM
IC50 [2]: 40 nM
SMILES: C[C@@H](Oc1cc(C(=O)Nc2ccc(=O)n(C)c2)nnc1N)c1c(Cl)ccc(F)c1Cl

IC50 (HCC827): < 100 nM
SMILES: CC(C)n1cc(C(=O)Nc2ccc(Oc3ccnc(N)c3C#CC(=O)N3CCOCC3)c(F)c2)c(=O)n(-c2ccc(F)cc2)c1=O

IC50 (HCC827): < 100 nM
SMILES: COCCN1CCC(C#Cc2c(Oc3ccc(NC(=O)c4cn(C(C)C)c(=O)n(-c5ccc(F)cc5)c4=O)cc3F)ccnc2N)CC1

IC50 [5]: 1620 nM
IC50 (MCF7): 15.7 µM
IC50 (HT-29): 10.4 µM
IC50 (MDA-MB-231): 7.93 µM
IC50 (A549 [6]): 37 µM
IC50 (COLO 205): < 100 nM
IC50 [2]: 6610 nM
SMILES: Cc1ccc(C(=O)Nc2cccc(C(=O)/C=C/c3ccc(F)cc3)c2)cc1

IC50 (HCC827): < 100 nM
SMILES: CN1CCN(CC#Cc2c(Oc3ccc(NC(=O)c4ccnn(-c5ccc(F)cc5)c4=O)cc3F)ccnc2N)CC1

IC50 (HCC827): < 100 nM
SMILES: CC(C)n1cc(C(=O)Nc2ccc(Oc3ccnc(N)c3C#CC(C)(C)N3CCOCC3)c(F)c2)c(=O)n(-c2ccc(F)cc2)c1=O

IC50 [7]: 8.6 nM
SMILES: O=C(Nc1ccc(F)cc1)C1(C(=O)Nc2ccc(Oc3ncnn4cc(-c5cnn(CCO)c5)cc34)cc2)CC1

IC50 [7]: 26 nM
SMILES: Cn1cc(-c2cc3c(Oc4ccc(NC(=O)C5(C(=O)Nc6ccc(F)cc6)CC5)cc4)ncnn3c2)cn1
